Square brackets hold non-standard residues; d marks the D form. Ends that are not written are not given here. Dip = N[C@H](C(=O)O)C(c1ccccc1)c1ccccc1
Assays:
B16F1 cells [1] = assay: Release of cytochrome c (ELISA); type: cell-based, murine; details: 108 μM
Experimental: B16F1 cells were plated onto 96-well culture plates as previously described above for the MTT assay. Cells were treated with 108 μM (4×IC50^4h) for designated time points (30, 60, 90, 120 and 240 minutes), while control cells were preserved in serum-free RPMI-1640 only until the experimental endpoint. Supernatants were collected and diluted 1/5 in a serum-free RPMI 1640 before being evaluated using a Rat/Mouse Cytochrome c Quantikine ELISA kit (R&D Systems, USA), according to the instructions of the manufacturer. The concentration of cytochrome c was calculated by interpolation values on the provided standard curve.

A375 cells [2] = assay: Fluorescence measurement of reactive oxygen species (DCFDA); type: cell-based, human; details: 15 minutes of incubation, different concentrations
Experimental: A DCFDA cellular reactive oxygen species detection assay kit was purchased from abcam®, and A375 cells seeded in a 96-well Costar black clear bottom plate with 20,000 cells per well incubated in 37° C. 16 hours prior to DCFDA assay. Cells were washed with a 100 μL/well of pre-warmed PBS one time, and incubated with 20 µM of DCFDA in a buffer solution supplied with the kit at 37° C. in a cell culture incubator for 45 min, and then washed again with a buffer solution of 100 μL/well. […] The fluorescence intensity was determined at an excitation wavelength of 485 nm and an emission wavelength of 530 nm on a FLUOstar Galaxy plate reader.

B16F1 cells [3] = assay: Secondary tumour challenge of animals cured by LTX-315; type: in vivo, C57BL/6 mice
Experimental: Tumour cells were harvested, washed in RPMI-1640 and injected intradermally (i.d.) into the right side of the abdomen in C57BL/6 mice (5×10^4 B16F1 cells per mouse/50 μl RPMI-1640). Palpable tumours (20-30 mm^2) were injected i.t. with single doses of LTX-315 or LTX-328 dissolved in saline (1.0 mg peptide/50 μl saline) once a day for 3 consecutive days, and the vehicle control was saline only (0.9% NaCl in sterile H2O). Tumour size was measured using an electronic caliper and expressed as the area of an ellipse [(maximum dimension/2)×(minimum dimension/2)×π]. Animals were then euthanized when the product of the perpendicular tumour dimensions reached 130 mm^2 or when tumour ulceration developed. […] Animals surviving the i.d. tumour re-challenge were later given a second tumour rechallenge intravenously (i.v.) (2×10^5 cells) through the tail vein. Lungs were harvested on day 19 after the i.v. re-challenge. All mice were monitored for tumour size and survival.

human A547 cells = assay: TEM of A547 cells, mitochondrial membrane; type: cell-based; details: 10 μg/ml, 60 minutes
rat sarcoma model = assay: Rat sarcoma model with three lesions, tumour growth by live imaging; type: in vivo; details: LTX-315 injected into one subcutaneous lesion
A375 cells [4] = assay: Confocal microscopy, internalization of fluorescence-labeled peptide; type: cell-based, human
Experimental: The A375 cell line A375 (ECACC, 88113005) is a human malignant melanoma derived from patient material, and was purchased from Public Health England (PHE Culture Collections, Porton Down, Salisbury, UK). Cells were maintained as monolayer cultures in high glucose […] DMEM supplemented with 10% FBS and 1% L-glutamine, but not as antibiotics (complete media). The cell line was grown in a humidified 5% CO2 atmosphere at 37° C., and was regularly tested for the presence of mycoplasma with MycoAlert (Lonza).
Fixed cells, fluorescence-labeled peptide—Subconfluential A375 cells were seeded at 8,000 cells/well as above, and transfected on the second day using the Lipofectamine LTX with Plus transfection reagents (Invitrogen) following the manufacturer's protocol. The mitochondria were labeled using the pDsRed2-Mito, and the nucleus was labeled using the GFP-Histon2B plasmid (Imaging Platform, University of Tromsø). A day after transfection, cells were washed twice with serum-free RPMI, and treated at different concentration and incubation periods with LTX-315 Pacific Blue or LTX-328 Pacific Blue. […] Control cells were treated with unlabeled LTX-315 and also with serum-free RPMI only. After incubation, cells were fixed with 4% paraformaldehyde in PBS, and the wells were covered with Prolong Gold antifade (Invitrogen). Cells were further analyzed by use of a Leica TCS SP5 confocal microscope, with a […] objective. Pacific Blue, GFP and Ds Red were excited using UV, with 488 and 561 lasers, and fluorescence channels were sequentially detected using the following band passes: UV: 420-480 nm (with attenuation), 488: 501-550 nm and 561: 576-676 nm.

[5] = system: Human osteosarcoma U2OS cells; assay: Transmission electron microscopy of U2OS cells after LTX-315; type: cell-based
Experimental: Cytoplasmic membrane disintegration was carried out as described in FORVEILLE S. et al., Cell Cycle 2015, 14: 3506-12.
Human osteosarcoma U2OS cells were cultured in Glutamax-containing DMEM medium supplemented with 10% fetal calf serum (FCS), and […] HEPES buffer. Cells were grown at 37° C. in a humidified incubator under a 5% CO2 atmosphere.
For ultrastructural studies, human osteosarcoma U2OS cells were fixed in 1.6% glutaraldehyde (v/v in 0.1 M phosphate buffer) for 1 h, collected by scraping, centrifuged and the pellet was post-fixed 1% osmium tetroxide (w/v in 0.1 M phosphate buffer). Following dehydration through a graded ethanol series, cells were embedded in Epon™ 812 and ultrathin sections were stained with standard uranyl acetate and lead citrate. Images were taken using a Tecnai 12 electron microscope (FEI, Eindhoven, the Netherlands).

| Compound | time at which cytochrome c is present in the supernatant (B16F1 cells [1]) [min] | cytochrome c in supernatant, peak (B16F1 cells [1]; experimental endpoint) | ROS generation (A375 cells [2]) | animals with no tumour take (B16F1 cells [3]; i.d. re-challenge) [%] | animals with tumour growth absent (B16F1 cells [3]; i.d. re-challenge with B16F1 cells 4-5 weeks after CR) | CD3+ T cell infiltration of lung tumour foci (B16F1 cells [3]; i.v. re-challenge, histology) | mean # tumour foci (lung) (B16F1 cells [3]; i.v. re-challenge, n=7) | effect on mitochondrial membrane (human A547 cells) | effect on lesions (intraperitoneal and two subcutaneous tumours) (rat sarcoma model) | accumulation of labelled peptide around the mitochondria (A375 cells [4]; 1.5 μM, 30 minutes) | detection of labelled peptide in the cell nucleus (A375 cells [4]; 1.5 μM, 30 minutes) | internalization of peptide (A375 cells [4]; 3 μM, 60 min) | internalization of Pacific Blue-labelled peptide (A375 cells [4]; A375 cells, 3 μM and 1.5 μM) | cell morphology after administration (TEM) [5] |
| --- | --- | --- | --- | --- | --- | --- | --- | --- | --- | --- | --- | --- | --- | --- |
| Cl.Cl.NCCNC(=O)C(CN)(CCCc1ccccc1)CCCc1ccccc1 [LTX-401] | 120 | approximately 40 ng/ml |  |  |  |  |  |  |  |  |  |  |  |  |
| K-K-W-W-K-K-W-Dip-K-NH2 (KKWWKKW[Dip]K-NH2) [LTX-315] |  |  | Significant amounts of ROS were generated | 60 | 15 out of the 25 | significantly more infiltrated by CD3+ T cells | 15.86 | disintegration of the mitochondrial membrane | eradicated all three lesions | showed an accumulation around the mitochondria | not detected in the cell nucleus | detected in the cytoplasm | rapidly penetrated the plasma membrane | necrotic morphology with disintegration of cytoplasmic membranes |
